Measured values from patent US7807422B2, “Production of flavonoids by recombinant microorganisms” (The Research Foundation of State University of New York, priority 2004, dated 2010).

System: flavanone biosynthesis in recombinant yeast strain INV-4G
Experiment: Eriodictyol production from caffeic acid by INV-4G in the presence of luteolin
Format: cell-based, S. cerevisiae
Conditions: varying luteolin concentrations (1, 3, 10 mg/L)
Source text: Heterologous expression and fermentation. In order to assemble the two different flavone biosynthetic pathways, recombinant INVSc1 carrying plasmid Ycc4c181G was transformed with YC-FSI, YC-FSII or YC-FSII+CPR1 separately, yielding recombinant strains INV-4G+FSI, INV-4G+FSII, and INV-4G+FSII+CPR1. Yeast colonies harboring both plasmids were selected upon growth on SC agar plates lacking leucine and tryptophan (SC-Leu-Trp-). For flavone fermentation purposes, an individual recombinant yeast colony was grown overnight in 10-mL liquid SC-Leu-Trp-containing glucose at 30° C. with shaking. The following day, a portion of this culture was used to seed the main culture of SC-Leu-Trp-containing galactose and raffinose or MA-Leu-Trp-containing galactose and acetate to an Ab600 of 0.4. 0.5 mM of phenylpropanoid acid (cinnamic acid, p-coumaric acid, caffeic acid, ferulic acid) was then added to the main culture, and incubation was carried out at 30° C. with horizontal shaking for a maximum of 92 hours.
The efficiency of eriodictyol production from caffeic acid by INV-4G in the presence of varying luteolin concentrations was also tested.

O=c1cc(-c2ccc(O)c(O)c2)oc2cc(O)cc(O)c12 [luteolin]
regulation (feedback inhibition) of flavanone biosynthesis: did not regulate
